Laboratory results: patent US5217956A, “Composition and treatment with biologically active peptides and certain anions” (priority 1991, dated 1993)
No end group written: not given here.

What was measured:
[1] = test system: E. cloacae; experiment: Killing of E. cloacae: viable organisms on plating after incubation in TSB; type: cell-based, Enterobacter cloacae; conditions: for CFU / EOP (% viable): 15 min at 37° C.
Method: LEGEND: Organisms were incubated in a volume of 1 ml in either trypticase soy broth alone or containing substances noted for 15 min at 37° C. An aliquot was then diluted and plated to determine number of viable organisms.

[2] = test system: Pseudomonas aeruginosa; experiment: Minimal inhibitory concentration in trypticase soy broth versus Pseudomonas aeruginosa; type: cell-based
Method: (§1) Approximately 1,000 bacteria were seeded into about 200 ul of trypticase soy broth. Either magainin 2 carboxy terminal amide, PGLa, or ALSKALSK ALSKALSKALSKALSK (Z-44) were added in increasing concentrations in the absence (Panel A) or presence (Panel B) of 50 mM NaF.

[3] = test system: Enterobacter cloacae; type: cell-based
Method: as §1

Compound: [F-].[Na+] [NaF, sodium fluoride]
- CFU ([1]; NaF 25 mM alone): 10^7
- EOP (% viable) ([1]; NaF 25 mM alone): 100%

Compound: GIGKFLHSAKKFGKAFVGEIMNS-NH2 [MGN2]
- MINIMAL INHIBITORY CONCENTRATION ([2]; Panel A: absence of NaF): 250 to 500 µg/mL
- MINIMAL INHIBITORY CONCENTRATION ([2]; Panel B: +50 mM NaF): 60 to 125 µg/mL
- bacterial killing ([1]; 60 ug/ml MGN2 + 50 mM NaF, 10^7 E. cloacae in 1 ml TSB): all bacteria are killed
- potentiation of effective killing power by addition of fluoride ([1]; 60 ug/ml MGN2 with versus without NaF): over 1 million
- CFU ([1]; peptide 60 ug/ml + NaF 25 mM): 0
- EOP (% viable) ([1]; peptide 60 ug/ml + NaF 25 mM): 0%
- CFU ([1]; peptide 60 ug/ml, no NaF, 10^7 organisms in 1 ml TSB): about 10^6
- CFU ([1]; peptide 60 ug/ml, no NaF, 10^7 organisms in 1 ml TSB, listed as MGN2 (NH2)): 10^6
- EOP (% viable) ([1]; peptide 60 ug/ml, no NaF): 90%

Compound: GMASKAGAIAGKIAKVALKAL-NH2 [PGLa]
- MINIMAL INHIBITORY CONCENTRATION [3]: > 250 µg/mL
